Test results reported in patent publication US6911469B2, “Sulfonamide compounds and pharmaceutical use thereof” (Fujisawa Pharmaceutical Co., Ltd., priority 1997, dated 2005).

Row | Structure (SMILES) | melting point
1 | Cc1cc(C(=O)NS(=O)(=O)c2ccc(Cl)s2)nc2c1nc(C)n2Cc1ccc(Br)cc1Cl [Example 106-3, 3-(4-bromo-2-chlorobenzyl)-5-[(5-chlorothiophen-2-yl)sulfonylcarbamoyl]-2,7-dimethyl-3H-imidazo[4,5-b]pyridine] | 214 to 215 °C
2 | CCCCS(=O)(=O)NC(=O)c1ccc2c(c1)CN(Cc1ccc(Cl)cc1Cl)C(C)=N2.Cl | 258 °C (dec.)
3 | Cc1nc2ccc(C(=O)NS(=O)(=O)c3ccc(Br)s3)nc2n1Cc1ccc(C(F)(F)F)cc1Cl [Example 109-4, 5-((5-bromothiophen-2-yl)sulfonylcarbamoyl)-3-(2-chloro-4-(trifluoromethyl)benzyl)-2-methyl-3H-imidazo[4,5-b]pyridine] | 172 to 173 °C
4 | CCCCCS(=O)(=O)NC(=O)c1cccc2c(CC)c(Cc3ccc(Cl)cc3Cl)sc12 [Example 38-1, 2-(2,4-dichlorobenzyl)-3-ethyl-7-(1-n-pentanesulfonylcarbamoyl)benzo[b]thiophene] | 176 to 178 °C
5 | CCCCS(=O)(=O)NC(=O)c1ccc2nc(C)n(Cc3ccc(Cl)cc3Cl)c2n1 [Example 8-2, 5-(n-butanesulfonylcarbamoyl)-3-(2,4-dichlorobenzyl)-2-methyl-3H-imidazo[4,5-b]pyridine] | 153 to 154 °C
6 | CCCCS(=O)(=O)NC(=O)c1ccc2nnn(Cc3ccc(Cl)cc3Cl)c2c1 [Example 40, 6-(1-n-butanesulfonyl-carbamoyl)-1-(2,4-dichlorobenzyl)benzotriazole] | 158 to 160 °C
7 | CCCCCS(=O)(=O)NC(=O)c1ccc2sc(C)c(Cc3ccc(Cl)cc3Cl)c2c1 [Example 37, 3-(2,4-dichlorobenzyl)-2-methyl-5-(1-n-pentanesulfonylcarbamoyl)benzo[b]thiophene] | 158.5 to 159.3 °C
8 | CSc1ccc(Cn2c(C)nc3ccc(C(=O)NS(=O)(=O)c4ccc(Cl)s4)nc32)c(Cl)c1 [Example 149, 3-(2-chloro-4-(methylthio)benzyl)-5-[(5-chlorothiophen-2-yl)sulfonylcarbamoyl]-2-methyl-3H-imidazo[4,5-b]pyridine] | 170 to 171 °C
9 | CCCCCS(=O)(=O)NC(=O)c1cc(C)c2nc(C)n(Cc3ccc(-c4cccs4)cc3Cl)c2n1 [Example 188, 3-[2-chloro-4-(thiophen-2-yl)benzyl]-2,7-dimethyl-5-(1-pentanesulfonylcarbamoyl)-3H-imidazo[4,5-b]pyridine] | 220 to 224 °C
10 | CCCCCS(=O)(=O)NC(=O)c1cc(C)c2nc(C)n(Cc3ccc(-c4ccc(Cl)s4)cc3Cl)c2n1 [Example 193, 3-[2-chloro-4-(5-chlorothiophen-2-yl)benzyl]-2,7-dimethyl-5-(1-pentanesulfonylcarbamoyl)-3H-imidazo[4,5-b]pyridine] | 215 to 217 °C
11 | CCCCCS(=O)(=O)NC(=O)c1ccc2sc(C)c(Cc3ccc(Cl)c(Cl)c3)c2c1 [Example 1, 3-(3,4-dichlorobenzyl)-2-methyl-5-(n-pentanesulfonyl-carbamoyl)benzo[b]thiophene] | 159 to 160 °C
12 | CCCCS(=O)(=O)NC(=O)c1ccc2c(=O)n(C)c(Cc3ccc(Cl)cc3Cl)nc2c1 [Example 45, 7-(1-n-butanesulfonyl-carbamoyl)-2-(2,4-dichlorobenzyl)-3-methyl-4(3H)-quinazolinone] | 244 to 246 °C
13 | CCCCS(=O)(=O)NC(=O)c1ccc2nc(C)n(Cc3ccc(Cl)cc3Br)c2n1 [Example 13-3, 3-(2-bromo-4-chlorobenzyl)-5-(n-butanesulfonylcarbamoyl)-2-methyl-3H-imidazo[4,5-b]pyridine] | 145 to 146 °C
14 | CCCCCS(=O)(=O)NC(=O)c1ccc2nc(C)n(Cc3ccc(Cl)cc3C)c2n1 [Example 28-1, 3-(4-chloro-2-methylbenzyl)-2-methyl-5-(n-pentanesulfonylcarbamoyl)-3H-imidazo[4,5-b]pyridine] | 155 to 157 °C
15 | CCCCCS(=O)(=O)NC(=O)c1cc(C)cc2c(C)c(Cc3ccc(Cl)cc3Cl)oc12 [Example 31-1, 2-(2,4-dichlorobenzyl)-3,5-dimethyl-7-(1-n-pentanesulfonylcarbamoyl)benzo[b]furan] | 164 to 165.5 °C
16 | CCCCCS(=O)(=O)NC(=O)c1ccc2nc(C)n(Cc3ccc(SC)cc3Cl)c2n1 [Example 151, 3-(2-chloro-4-(methylthio)benzyl)-2-methyl-5-(1-pentanesulfonylcarbamoyl)-3H-imidazo[4,5-b]pyridine] | 184 to 185 °C
17 | CCCCCS(=O)(=O)NC(=O)c1ccc2nc(C)n(Cc3ccc(Cl)cc3OC)c2n1 [Example 27, 3-(4-chloro-2-methoxybenzyl)-2-methyl-5-(n-pentanesulfonylcarbamoyl)-3H-imidazo[4,5-b]pyridine] | 168 to 170 °C
18 | Cc1nc2ccc(C(=O)NS(=O)(=O)c3ccc(Cl)s3)nc2n1Cc1ccc(C(F)(F)F)cc1Cl [Example 109-3, 3-(2-chloro-4-(trifluoromethyl)-benzyl)-5-((5-chlorothiophen-2-yl)sulfonylcarbamoyl)-2-methyl-3H-imidazo[4,5-b]pyridine] | 170 to 171 °C

More lines, now with the values ahead:

Row | melting point | Structure (SMILES)
19 | 213 to 215 °C | Cc1ccc(Cn2c(C)nc3ccc(C(=O)NS(=O)(=O)c4ccccc4)nc32)c(Cl)c1 [Example 72, 5-(benzenesulfonylcarbamoyl)-3-(2-chloro-4-methylbenzyl)-2-methyl-3H-imidazo[4,5-b]pyridine]
20 | 214 to 216 °C | Cc1nc(=O)c2ccc(C(=O)NS(=O)(=O)c3ccccc3)cc2n1Cc1ccc(Cl)cc1Cl [Example 47-2, 7-(benzenesulfonylcarbamoyl)-1-(2,4-dichlorobenzyl)-2-methyl-4(1H)-quinazolinone]
21 | 104 to 105 °C | Cc1nc2ccc(C(=O)NS(=O)(=O)c3ccccc3)nc2n1Cc1ccc(OCCN(C)c2ccccn2)cc1Cl [Example 82, 5-(benzenesulfonylcarbamoyl)-3-(2-chloro-4-((2-(N-methyl-N-(2-pyridinyl)amino)ethyl)oxy)benzyl)-2-methyl-3H-imidazo[4,5-b]pyridine]
22 | 206 to 207 °C | Cc1nc2ccc(C(=O)NS(=O)(=O)c3ccc(Cl)s3)nc2n1Cc1ccc(Cl)cc1Cl [Example 65-4, 5-((5-chlorothiophene-2-yl)sulfonylcarbamoyl)-3-(2,4-dichlorobenzyl)-2-methyl-3H-imidazo[4,5-b]pyridine]
23 | 103 to 106 °C | CCCCCS(=O)(=O)NC(=O)c1cnc2nc(C)n(Cc3ccc(Cl)cc3Cl)c2c1 [Example 25, 1-(2,4-dichlorobenzyl)-2-methyl-6-(n-pentanesulfonylcarbamoyl)-1H-imidazo[4,5-b]pyridine]
24 | 184 to 185 °C | CCc1ccc(Cn2c(C)nc3ccc(C(=O)NS(=O)(=O)/C=C/c4ccccc4)nc32)c(Cl)c1 [Example 70-4, (E)-3-(2-chloro-4-ethylbenzyl)-2-methyl-5-[(2-phenylethenyl)sulfonylcarbamoyl]-3H-imidazo[4,5-b]pyridine]
25 | 245 to 247 °C | CCCCS(=O)(=O)NC(=O)c1ccc2c(=O)n(Cc3ccc(Cl)cc3Cl)cnc2c1 [Example 44, 7-(1-n-butanesulfonyl-carbamoyl)-3-(2,4-dichlorobenzyl)-4(3H)-quinazolinone]
26 | 174 to 175 °C | C=Cc1ccc(Cn2c(C)nc3ccc(C(=O)NS(=O)(=O)c4ccccc4)nc32)c(Cl)c1 [Example 71, 5-(benzenesulfonylcarbamoyl)-3-(2-chloro-4-vinylbenzyl)-2-methyl-3H-imidazo[4,5-b]pyridine]
27 | 223 to 225 °C | CCCCS(=O)(=O)NC(=O)c1ccc2nc(C)c(=O)n(Cc3ccc(Cl)cc3Cl)c2c1 [Example 49, 7-(1-n-butanesulfonyl-carbamoyl)-1-(2,4-dichlorobenzyl)-3-methyl-2(1H)-quinoxalinone]
28 | 177 to 179 °C | Cc1nc2ccc(C(=O)NS(=O)(=O)c3ccccc3)nc2n1Cc1ccc(OC(C)C)cc1Cl [Example 79, 5-(benzenesulfonylcarbamoyl)-3-(2-chloro-4-isopropoxybenzyl)-2-methyl-3H-imidazo[4,5-b]pyridine]
29 | 198 to 199 °C | Cc1nc2ccc(C(=O)NS(=O)(=O)c3ccccc3)nc2n1Cc1ccc(CO)cc1Cl [Example 115, 5-(Benzenesulfonylcarbamoyl)-3-(2-chloro-4-(hydroxymethyl)benzyl)-2-methyl-3H-imidazo[4,5-b]pyridine]
30 | 199 to 200 °C | CCCCS(=O)(=O)NC(=O)c1ccc2nc(C)n(Cc3ccc(-c4ccccc4)cc3Cl)c2n1 [Example 29-2, 5-(n-butanesulfonylcarbamoyl)-3-(2-chloro-4-phenylbenzyl)-2-methyl-3H-imidazo[4,5-b]pyridine]
31 | 253 to 255 °C | Cc1nc2ccc(C(=O)NS(=O)(=O)c3ccccc3)nc2n1Cc1ccc(C=O)cc1Cl [Example 92, 5-(benzenesulfonylcarbamoyl)-3-(2-chloro-4-formylbenzyl)-2-methyl-3H-imidazo[4,5-b]pyridine]
32 | 174 to 175 °C | CCCCCc1ccc(Cn2c(C)nc3ccc(C(=O)NS(=O)(=O)c4ccccc4)nc32)c(Cl)c1 [Example 73, 5-(benzenesulfonylcarbamoyl)-3-(2-chloro-4-(n-pentyl)benzyl)-2-methyl-3H-imidazo[4,5-b]pyridine]
33 | 122 to 125 °C | Cc1nc2ccc(C(=O)NS(=O)(=O)c3ccccc3)nc2n1Cc1ccc(OCC2CCCCC2)cc1Cl [Example 81, 5-(benzenesulfonylcarbamoyl)-3-(2-chloro-4-((cyclohexylmethyl)oxy)benzyl)-2-methyl-3H-imidazo[4,5-b]pyridine]
34 | 193 to 194 °C | Cc1nc2ccc(C(=O)NS(=O)(=O)c3ccccc3)nc2n1Cc1ccc(Cl)cc1Cl [Example 8-3, 5-benzenesulfonylcarbamoyl-3-(2,4-dichlorobenzyl)-2-methyl-3H-imidazo[4,5-b]pyridine]
35 | 190 to 191 °C | Cc1nc2ccc(C(=O)NS(=O)(=O)c3ccccc3)nc2n1Cc1ccc(OCc2ccccc2)cc1Cl [Example 77, 5-(benzenesulfonylcarbamoyl)-3-(4-benzyloxy-2-chlorobenzyl)-2-methyl-3H-imidazo[4,5-b]pyridine]
